Consider nine compounds from patent US7241913B2, “Ruthenium compounds” (The University Court of the University of Edinburgh, priority 2003, dated 2007).

Test [1] has as its system A2780 ovarian cancer cell line. The experiment in a line: Growth inhibition of human ovarian cancer cells, 24 h exposure, Coulter cell count. It counts as cell-based. The method, then:
(§1) The human ovarian cells were added at a density of 1×10^4 cells per well to 24-well tissue culture trays (Falcon Plastic, Becton Dickenson, Lincon Park, N.J., USA) and allowed to grow for 72 h before addition of the Ru(II) arene complexes. Stock solutions of the ruthenium compounds were made up fresh in deionised water and sonicated to ensure complete dissolution. These stock solutions were diluted with media to give final concentrations ranging between 0.1 and 100 μM. All compounds were evaluated at each concentration in duplicate wells, and complete assays were repeated a minimum of three times. Cisplatin or carboplatin was employed as a positive and comparative control in each experiment. After 24-hours exposure the drug-containing medium was removed, the cells washed with phosphate buffered saline (PBS) and fresh medium was added. Cell number was assessed after a further 72 h growth using a Coulter counter (Coulter Electronics Ltd, Luton, UK) and the IC50 values (concentration of drug causing 50% growth inhibition) calculated by linear regression analysis comparing the inhibitory effects of the drugs against the growth of untreated cells.
(§2) The cell lines and methods used are also described in Aird et al, Br. J. Cancer, (2002), 86, 1652–1657.
(§3) Using the above protocol, a number of compounds of the invention were tested on A2780 ovarian cancer cell line, on an A2780 ovarian cancer cell line resistant to cis-platin (A2780^CIS), and on an A2780 ovarian cancer cell line resistant to adriamycin (A2780^AD). Some of the compounds were tested on an A549 cell line.

The test system of the next test is A549 cell line. The experiment in a line: Growth inhibition, A549 cell line. The class given is cell-based. Conditions: A549 cells; Table 1. The method, then: as §1, §3
The test system of test [2] is A2780 ovarian cancer cell line resistant to cis-platin (A2780^CIS). The experiment in a line: Growth inhibition, cis-platin resistant ovarian line. To be noted: cis-platin resistant A2780 relative to A2780. It counts as cell-based, human. The method, then: as §1, §2, §3
Test [3] has as its system A2780 ovarian cancer cell line resistant to adriamycin (A2780^AD). Description: Growth inhibition, adriamycin resistant ovarian line. It counts as cell-based, human. To be noted: adriamycin resistant A2780 relative to A2780. The procedure: as §1, §2, §3
Setting [4] is: 24 h exposure, cell number after further 72 h growth, Table 1.
The mark [5] stands for this setting: comparison with 1,2-diaminoethane analogues.

With `Nc1ccc2c(c1N)C(=O)c1ccccc1C2=O.[Cl-].[Cl][Ru+].c1ccc2c(c1)CCCC2` [Example 9, [(η^6-1,2,3,4-tetrahydronaphthalene)Ru(1,2-diaminoanthraquinone)Cl]Cl], the IC50 in test [1] (setting [4]) amounted to 37 µM; with A549 cell line, 61 µM.
For `F[P-](F)(F)(F)(F)F.Nc1cccc(O)c1N.[Cl][Ru+].c1ccc(-c2ccccc2)cc1` [EX 4, [(η^6-Biphenyl)Ru(2,3-diaminophenol)Cl]PF6], the IC50 in test [1] (setting [4]) was 32 µM.
Same read-out and setting: to `F[P-](F)(F)(F)(F)F.F[P-](F)(F)(F)(F)F.Nc1ccc(-c2ccc(N)c(N)c2)cc1N.[Cl][Ru+].[Cl][Ru+].c1ccc(-c2ccccc2)cc1.c1ccc(-c2ccccc2)cc1` [EX 2, {[(η^6-Biphenyl)Ru(diaminobenzidine)Cl]PF6}2] belongs 52 µM.
As to `F[P-](F)(F)(F)(F)F.Nc1ccc([N+](=O)[O-])cc1N.[Cl][Ru+].c1ccc2c(c1)CCCC2` [Example 7, [(η^6-1,2,3,4-tetrahydronaphthalene)Ru(1,2-diamino-4-nitrobenzene)Cl]PF6], the IC50 in test [1] (setting [4]) was found to be 59 µM; in the test on A549 cell line it was 148 µM.
As to `F[P-](F)(F)(F)(F)F.Nc1ccccc1N.[Cl][Ru+].c1ccc2c(c1)Cc1ccccc1C2` [EX 3, [(η^6-dihydroanthracene)Ru(o-phenylenediamine)Cl]PF6], the IC50 in test [1] (setting [4]) and in test [1] (setting [5]) was 7 µM each time. For the same compound, the “A2780^CIS Fold resistance” value in test [2] (Table 1) and in test [2] (setting [5]) was 5 fold throughout. The “A2780^AD fold resistance” value in test [3] (Table 1) and in test [3] (setting [5]) was 2 fold throughout.
For `Nc1ccc2c(c1N)C(=O)c1ccccc1C2=O.[Cl-].[Cl][Ru+].c1ccc2c(c1)CCC2` [Example 8, [(η^6-indan)Ru(1,2-diaminoanthraquinone)Cl]Cl], the IC50 in test [1] (setting [4]) amounted to 15 µM; with A549 cell line it was 48 µM.
The compound `Cc1ccc(N)c(N)c1.F[P-](F)(F)(F)(F)F.[Cl][Ru+].c1ccc2c(c1)CCC2` [EX 5, [(η^6-indan)Ru(3,4-diaminotoluene)Cl]PF6] gave an IC50 in test [1] (setting [4]) of 4 µM.
In the case of `Cc1ccc(C(C)C)cc1.F[P-](F)(F)(F)(F)F.Nc1ccccc1N.[Cl][Ru+]` [EX 6, [(η^6-p-cymene)Ru(o-phenylenediamine)Cl]PF6], the IC50 in test [1] (setting [4]) and in test [1] (setting [5]) was 11 µM in each case. For the same compound, the “A2780^CIS Fold resistance” value in test [2] (Table 1) and in test [2] (setting [5]) was 1 fold in each case. The “A2780^AD fold resistance” value in test [3] (Table 1) and in test [3] (setting [5]) was 0.6 fold throughout.
As to `F[P-](F)(F)(F)(F)F.[Cl][Ru-]1[NH2+]c2ccccc2[NH2+]1.c1ccc(-c2ccccc2)cc1` [EX 1, [(η^6-Biphenyl)Ru(o-phenylenediamine)Cl]PF6], the IC50 in test [1] (setting [4]) and in test [1] (setting [5]) was 5 µM in each case. The “A2780^CIS Fold resistance” value in test [2] (Table 1) and in test [2] (setting [5]) was 1 fold throughout. For the same compound, the “A2780^AD fold resistance” value in test [3] (Table 1) and in test [3] (setting [5]) was 0.8 fold each time.
